Several values for one entry are separate records, joined by “and”; a condition that tells them apart may be missing. Equal entries are not always repeated.
Legend:
[1] = tested on: subperiosteum of the femur; assay: Rat periosteal injection model; format: in vivo, Male Sprague-Dawley rats; settings: single injection in a polymer formulation, day 15
Protocol: Male Sprague-Dawley rats at 3 weeks of age were used. The rats were anesthetized with isoflurane inhalation ([…]) in a conduction chamber located in a fume hood. The right hindlimb of each rat was shaved and cleaned. A 25 G needle attached with a Hamilton syringe pre-filled with testing solution was used for the local injection. The solution was injected onto the subperiosteum of the anterior, mid-diaphyseal region of femur in a volume of 5 to 10 ul for various days. On day 15, the rats were sacrificed and the femurs were collected for analysis. (See, e.g., M. E. Joyce, A. B. Roberts, M. B. Sporn and M. Bolander, “Transforming growth factor-β and the initiation of chondrogenesis and osteogenesis in the rat femur,” The Journal of Cell Biology 110:2195-2207 (1990).) On day one, the right femurs of male Sprague-Dawley rats received single injection of vehicle or test compound in a polymer formulation. The test compound was the sodium salt of (3-(((4-tert-butyl-benzyl)-(pyridine-3-sulfonyl)-amino)-methyl)-phenoxy)-acetic acid. On day 15, all rats were sacrificed and the right femurs were collected for analysis. Periosteal bone induction was assessed by using radiography and dual-energy X-ray absorptiometry (DEXA).

[2] = tested on: 1.5 cm segmental defect in the midulna; assay: Dog ulnar segmental defect model; format: in vivo, dogs
Text: The ulnar segmental defect model was used to test the efficacy of a single dose of the test compound (which was the sodium salt of (3-(((4-tert-butyl-benzyl)-(pyridine-3-sulfonyl)-amino)-methyl)-phenoxy)-acetic acid) in a PLGH formulation ([…]). The protocol was modified as follows: With animals under general anesthesia, the foreleg was prepped and draped in sterile fashion. A lateral incision approximately 10 cm in length was made and the ulna was exposed extraperiostally. Periosteum was cut and moved to the proximal and distal parts of the incision. Then a 1.5 cm segmental defect was made in the midulna using a pendular saw. The radius and the remaining interosseal membrane were left intact. The defect site was irrigated with saline to remove bone debris. The site was then filled with test compound in a slow-release matrix formulation, as described above. The dogs were divided into the following groups.
Radiographs of the forelimbs were obtained immediately following surgery and every two weeks thereafter until the termination of the study. Radiographs were graded on a 0 to 6 scale (Table 2).

[3] = tested on: osteotomy on the distal portion of the dog tibia; assay: Canine tibial osteotomy model; format: in vivo, Beagle male dogs; settings: RG502H/NMP, 8 weeks, sodium salt
Text: Normal fracture healing usually represents a biologically optimum healing process, as a result detecting an acceleration of healing in pre-clinical models that heal rapidly is both difficult and challenging. The test compound (which was the sodium salt of (3-(((4-tert-butyl-benzyl)-(pyridine-3-sulfonyl)-amino)-methyl)-phenoxy)-acetic acid) in a PLGH formulation (50% 50:50 PLGH (RG502H Grade)/50% NMP) was studied to determine its effect on accelerating healing in a rapidly healing canine osteotomy model. Enhancement of healing in this model supports potential applications of the test compound to heal normal fractures in humans since humans tend to heal fractures more slowly.
Beagle male dogs 12±3 kg, 14 months of age were used for the study. Dogs were divided into four groups of three to four animals each.
With animals under general anesthesia, the hindleg was prepped and draped in sterile fashion. A lateral incision approximately 4 cm in length was made. Surgical osteotomy was made on the distal portion of the dog tibia using a Gigli saw. The defect was stabilized using an AO plate. The fibula and the remaining interosseal membrane was left intact and the defect site was irrigated with saline to remove bone debris. The site was then filled with carrier as described above. Following surgery, animals were allowed full weight-bearing activity, and water and food ad libitum. […]

right femoral fracture = assay: Rat femoral transverse fracture model; format: in vivo, Male Sprague-Dawley rats; settings: single percutaneous injection to fracture site immediately after surgery; 50 mg/ml, 300 ul, 15 mg/rat; day 21
Protocol: Male Sprague-Dawley rats at 3 to 4 months of age were used. The animals were anesthetized with ketamine and xylazine at doses of 100 and 10 mg/kg, respectively. The right hindlimb of each rat was shaved and cleaned. A 1 cm incision was made just lateral to the patella and the femoral condyle was exposed. A Kirschner wire (0.045″ in diameter) was introduced into the intramedullary canal through the intercondylar portion to serve as an internal stabilization. The muscle incision was closed with Vicryl® and the skin incision was closed with stainless steel wound clips. The mid-diaphysis of the pinned femur was fractured by means of a three-point bending device driven by a dropped weight. The rats were permitted full weight-bearing and unrestricted activity after awakening from anesthesia. The test agents were administered on various days after surgery by percutaneous injection onto the fracture site. The animals were sacrificed on various days after treatment and the femurs were collected for analysis. Fracture healing was evaluated by using radiography, histomorphometry and biomechanical test. (See, e.g., F. Bonnarens and T. A. Einhorn, “Production of a standard closed fracture in laboratory animal bone,” Journal of Orthopaedic Research 2:97-101 (1984).)
Male Sprague-Dawley rats at 3 to 4 months of age were subjected to right femoral fracture. […]

`CC(C)(C)c1ccc(CN(Cc2cccc(OCC(=O)[O-])c2)S(=O)(=O)c2cccnc2)cc1.[Na+]` [test compound, (3-(((4-tert-butyl-benzyl)-(pyridine-3-sulfonyl)-amino)-methyl)-phenoxy)-acetic acid, sodium salt] was tested, and the “bone mineral content (BMC) of the injected region of the femur by DEXA vs vehicle” value [1] was “significantly increased”, the “periosteal bone induction by radiography” value ([1]; anterior aspect of right femur) was “new bone formation” and the “efficacy in formulation containing RG503H Grade” value ([2]; 50 mg/ml in 50% 50:50 PLGH (RG503H Grade)/50% NMP) was “did not work well”. For the same compound, the “union compared to RG502H Grade formulation” value ([2]; 50 mg/ml in 50% 50:50 PLGH (RG503H Grade)/50% NMP, union achieved in some dogs) was “delayed”, the “treated animals healed, overall” value ([2]; all treated groups vs none for vehicle controls) was 70-75% and the “remodeling of newly formed bone” value ([2]; by week 24, slow release matrix formulation RG502H/NMP) was “remodeled back to the same shape and size as the contralateral bone”. The “Complete rebridging/number of dogs” value ([2]; group B: 50 mg (1 ml of 50 mg/ml formulation), RG502H/NMP) was 2/4, the “Complete rebridging/number of dogs” value ([2]; group C: 10 mg (1 ml of 10 mg/ml formulation), RG502H/NMP) was 9/12 and the Radiographic response ([2]; group C: 10 mg (1 ml of 10 mg/ml formulation), RG502H/NMP, two dogs) was “did not respond”. For the same compound, the “Complete rebridging/number of dogs” value ([2]; group D: 10 mg (0.2 ml of 50 mg/ml formulation), RG502H/NMP) was 3/4, the “rebridgement of defect after a single application” value ([2]; groups B, C and D, slow release matrix formulation RG502H/NMP) was “complete rebridgement” and the Rebridging/number of dogs ([3]; group C: 5 mg (0.5 ml of 10 mg/ml formulation)) was “Four out of four and 4/4”. The Rebridging/number of dogs ([3]; group D: 25 mg (0.5 ml of 50 mg/ml formulation)) was “the other three showed significant healing and 3/4” and the “calluses as assessed by radiography vs vehicle” value (right femoral fracture) was “larger and denser calluses”.

— US8017144B2, “Controlled release polymeric compositions of bone growth promoting compounds” (Pfizer Inc., priority 2001, dated 2011)
